Experimental data taken from PubChem BioAssay AID1259407 (Chemical Carcinogenesis Research Information System (CCRIS), 2018).
Calls of active or inactive are those of the source. How the calls were made is not given here.

Test system: CCRIS mutagenicity, Ames/micronucleus/aberration tests
Test: CCRIS mutagenicity studies
[1] = Test System: AMES SALMONELLA TYPHIMURIUM, Strain/Indicator: TA98, Metabolic Activation: NONE, Method: STANDARD PLATE
[2] = Test System: AMES SALMONELLA TYPHIMURIUM, Strain/Indicator: TA98, Metabolic Activation: RAT, LIVER, S-9, AROCLOR 1254, Method: STANDARD PLATE
[3] = Test System: AMES SALMONELLA TYPHIMURIUM, Strain/Indicator: TA100, Metabolic Activation: NONE, Method: STANDARD PLATE
[4] = Test System: AMES SALMONELLA TYPHIMURIUM, Strain/Indicator: TA100, Metabolic Activation: RAT, LIVER, S-9, AROCLOR 1254, Method: STANDARD PLATE
[5] = Test System: AMES SALMONELLA TYPHIMURIUM, Strain/Indicator: TA1535, Metabolic Activation: NONE, Method: STANDARD PLATE
[6] = Test System: AMES SALMONELLA TYPHIMURIUM, Strain/Indicator: TA1537, Metabolic Activation: NONE, Method: STANDARD PLATE
[7] = Test System: AMES SALMONELLA TYPHIMURIUM, Strain/Indicator: TA98, Metabolic Activation: NONE, Method: PREINCUBATION
[8] = Test System: AMES SALMONELLA TYPHIMURIUM, Strain/Indicator: TA100, Metabolic Activation: NONE, Method: PREINCUBATION

## ClC(Cl)=C(Cl)c1cccc(Cl)c1Cl
[1]
  mutagenic call: inactive; negative
[2]
  mutagenic call: inactive; negative
[3]
  mutagenic call: inactive; negative
[4]
  mutagenic call: inactive; negative

## FC(F)(F)c1ccccc1CN1C2c3ccccc3-c3ccccc3C21 (stereo not drawn)
[3]
  mutagenic call: active; positive

## O[C@@H]1[C@@H]2O[C@@H]2c2c(ccc3nc4ccc5ccccc5c4cc23)[C@H]1O
[1]
  mutagenic call: active; positive
Test System: AMES SALMONELLA TYPHIMURIUM, Strain/Indicator: TA100, Metabolic Activation: GUINEA PIG, LIVER, S-9, 3-METHYLCHOLANTHRENE, Method: STANDARD PLATE
  mutagenic call: active; positive
[3]
  mutagenic call: active; positive
Test System: CHINESE HAMSTER V-79, Strain/Indicator: V-79/6-THIOGUANINE, Metabolic Activation: NONE
  mutagenic call: active; positive

## Nc1snc2cc(Cl)ccc12
[1]
  mutagenic call: inactive; negative
Test System: AMES SALMONELLA TYPHIMURIUM, Strain/Indicator: TA98, Metabolic Activation: S-9, Method: STANDARD PLATE
  mutagenic call: inactive; negative
[3]
  mutagenic call: inactive; negative
Test System: AMES SALMONELLA TYPHIMURIUM, Strain/Indicator: TA100, Metabolic Activation: S-9, Method: STANDARD PLATE
  mutagenic call: active; positive
[5]
  mutagenic call: inactive; negative
Test System: AMES SALMONELLA TYPHIMURIUM, Strain/Indicator: TA1535, Metabolic Activation: S-9, Method: STANDARD PLATE
  mutagenic call: inactive; negative
[6]
  mutagenic call: inactive; negative
Test System: AMES SALMONELLA TYPHIMURIUM, Strain/Indicator: TA1537, Metabolic Activation: S-9, Method: STANDARD PLATE
  mutagenic call: active; positive

## c1ccc2c(c1)-c1cccc3c1c-2cc1c2ccccc2ccc31
Test System: HUMAN H1A1V2 CELLS, Strain/Indicator: TK LOCUS, Metabolic Activation: NONE, Method: SUSPENSION/PLATE
  mutagenic call: inactive; negative

## COc1cccc2c1C(=O)c1c(O)c3c(c(O)c1C2=O)CC(O)(C(C)=O)CC3OC1CC(N(C)C)C(O)C(C)O1 (stereo not drawn)
Test System: CHINESE HAMSTER V-79, Strain/Indicator: V-79/8-AZAGUANINE, Metabolic Activation: RAT, HEPATOCYTES
  mutagenic call: inactive; negative
Test System: UDS RAT HEPATOCYTES, Strain/Indicator: THY INCORP, Metabolic Activation: NONE, Method: AUTOMATIC COLONY COUNTER
  mutagenic call: active; positive

## O=[N+]([O-])c1ccc(OCC2CO2)cc1 (stereo not drawn)
[7]
  mutagenic call: inactive; negative
[8]
  mutagenic call: active; positive
[3]
  mutagenic call: active; positive
Test System: AMES SALMONELLA TYPHIMURIUM, Strain/Indicator: TA104, Metabolic Activation: NONE, Method: STANDARD PLATE
  mutagenic call: active; positive
Test System: AMES SALMONELLA TYPHIMURIUM, Strain/Indicator: TA4001, Metabolic Activation: NONE, Method: STANDARD PLATE
  mutagenic call: active; positive
Test System: AMES SALMONELLA TYPHIMURIUM, Strain/Indicator: TA4006, Metabolic Activation: NONE, Method: STANDARD PLATE
  mutagenic call: active; positive

## CCOC(=O)CBr
End Point: IN VITRO CHROMOSOMAL ABERRATIONS, Test System: CHL CELLS, Metabolic Activation: RAT, LIVER, S-9, SODIUM PHENOBARBITAL AND 5,6-BENZOFLAVONE
  mutagenic call: inactive; negative; authors report equivocal results for structural changes at highest dos
[7]
  mutagenic call: inactive; negative
[1]
  mutagenic call: inactive; negative
Test System: AMES SALMONELLA TYPHIMURIUM, Strain/Indicator: TA98, Metabolic Activation: RAT LIVER S-9, PHENOBARBITAL AND BETA-NAPHTHOFLAVONE, Method: PREINCUBATION
  mutagenic call: inactive; negative
[2]
  mutagenic call: inactive; negative
[8]
  mutagenic call: inactive; negative
[3]
  mutagenic call: inactive; negative
Test System: AMES SALMONELLA TYPHIMURIUM, Strain/Indicator: TA100, Metabolic Activation: RAT LIVER S-9, PHENOBARBITAL AND BETA-NAPHTHOFLAVONE, Method: PREINCUBATION
  mutagenic call: inactive; negative
[4]
  mutagenic call: inactive; negative
Test System: AMES SALMONELLA TYPHIMURIUM, Strain/Indicator: TA102, Metabolic Activation: NONE, Method: PREINCUBATION
  mutagenic call: inactive; negative
Test System: AMES SALMONELLA TYPHIMURIUM, Strain/Indicator: TA102, Metabolic Activation: RAT LIVER S-9, PHENOBARBITAL AND BETA-NAPHTHOFLAVONE, Method: PREINCUBATION
  mutagenic call: inactive; negative
Test System: AMES SALMONELLA TYPHIMURIUM, Strain/Indicator: TA104, Metabolic Activation: NONE, Method: PREINCUBATION
  mutagenic call: inactive; negative
Test System: AMES SALMONELLA TYPHIMURIUM, Strain/Indicator: TA104, Metabolic Activation: RAT LIVER S-9, PHENOBARBITAL AND BETA-NAPHTHOFLAVONE, Method: PREINCUBATION
  mutagenic call: active; positive
Test System: AMES SALMONELLA TYPHIMURIUM, Strain/Indicator: TA1535, Metabolic Activation: HAMSTER, LIVER, S-9, AROCLOR 1254, Method: STANDARD PLATE
  mutagenic call: inactive; negative
Test System: AMES SALMONELLA TYPHIMURIUM, Strain/Indicator: TA1535, Metabolic Activation: NONE, Method: PREINCUBATION
  mutagenic call: inactive; negative
[5]
  mutagenic call: inactive; negative
Test System: AMES SALMONELLA TYPHIMURIUM, Strain/Indicator: TA1535, Metabolic Activation: RAT LIVER S-9, PHENOBARBITAL AND BETA-NAPHTHOFLAVONE, Method: PREINCUBATION
  mutagenic call: inactive; negative
Test System: AMES SALMONELLA TYPHIMURIUM, Strain/Indicator: TA1535, Metabolic Activation: RAT, LIVER, S-9, AROCLOR 1254, Method: STANDARD PLATE
  mutagenic call: inactive; negative
Test System: AMES SALMONELLA TYPHIMURIUM, Strain/Indicator: TA1537, Metabolic Activation: HAMSTER, LIVER, S-9, AROCLOR 1254, Method: STANDARD PLATE
  mutagenic call: inactive; negative
Test System: AMES SALMONELLA TYPHIMURIUM, Strain/Indicator: TA1537, Metabolic Activation: NONE, Method: PREINCUBATION
  mutagenic call: inactive; negative
[6]
  mutagenic call: inactive; negative
Test System: AMES SALMONELLA TYPHIMURIUM, Strain/Indicator: TA1537, Metabolic Activation: RAT LIVER S-9, PHENOBARBITAL AND BETA-NAPHTHOFLAVONE, Method: PREINCUBATION
  mutagenic call: inactive; negative
Test System: AMES SALMONELLA TYPHIMURIUM, Strain/Indicator: TA1537, Metabolic Activation: RAT, LIVER, S-9, AROCLOR 1254, Method: STANDARD PLATE
  mutagenic call: inactive; negative
Test System: AMES SALMONELLA TYPHIMURIUM, Strain/Indicator: TA1538, Metabolic Activation: HAMSTER, LIVER, S-9, AROCLOR 1254, Method: STANDARD PLATE
  mutagenic call: inactive; negative
Test System: AMES SALMONELLA TYPHIMURIUM, Strain/Indicator: TA1538, Metabolic Activation: NONE, Method: STANDARD PLATE
  mutagenic call: inactive; negative
Test System: AMES SALMONELLA TYPHIMURIUM, Strain/Indicator: TA1538, Metabolic Activation: RAT, LIVER, S-9, AROCLOR 1254, Method: STANDARD PLATE
  mutagenic call: inactive; negative
Test System: E.COLI, Strain/Indicator: WP2UVRA/PKM101, Metabolic Activation: NONE, Method: PREINCUBATION
  mutagenic call: inactive; negative
Test System: E.COLI, Strain/Indicator: WP2UVRA/PKM101, Metabolic Activation: RAT LIVER S-9, PHENOBARBITAL AND BETA-NAPHTHOFLAVONE, Method: PREINCUBATION
  mutagenic call: active; positive
Test System: E.COLI, Strain/Indicator: WP2UVRA, Metabolic Activation: NONE, Method: PREINCUBATION
  mutagenic call: inactive; negative
Test System: E.COLI, Strain/Indicator: WP2UVRA, Metabolic Activation: RAT LIVER S-9, PHENOBARBITAL AND BETA-NAPHTHOFLAVONE, Method: PREINCUBATION
  mutagenic call: inactive; negative
Test System: MOUSE LYMPHOMA, Strain/Indicator: L5178Y (TK+/TK-), Metabolic Activation: NONE, Method: SUSPENSION/PLATE
  mutagenic call: active; positive. reevaluation of results: inconclusive
Test System: MOUSE LYMPHOMA, Strain/Indicator: L5178Y (TK+/TK-), Metabolic Activation: RAT, LIVER, S-9, AROCLOR 1254, Method: SUSPENSION/PLATE
  mutagenic call: active; positive. reevaluation of results: inconclusive
